According to paper PMC7934871 (JCI Insight, 2021):

Tests used:
[1] = tested on: B16 melanoma; assay: B16 melanoma lung metastasis in C57BL/6 mice; type: in vivo, mouse
Source text: Figure 7 PS-acet.-STAT3 peptide treatment efficiently reduces mouse melanoma lung metastasis. (A) Systemic PS-acet.-STAT3 peptide treatment reduces B16 lung nodules in syngeneic mouse model compared with control treatments. The B16 lung nodules in mice treated with the indicated STAT3 peptides and vehicle (n = 5) were visualized by IF staining of gp100 and quantified by confocal microscopy and Zen software. The levels of phosphorylation of STAT3 (p-STAT3), CD69, and Foxp3 in the tumor or tumor-infiltrating CD8^+ T or CD4^+ T cells were detected by IF staining followed by confocal microscopy in B16 metastatic lung nodules upon treatments with vehicle, PO- or PS-acet.-STAT3, PS-STAT3-K685R, or PS-unacet.-STAT3 peptides as indicated. Images are representative of 5 lungs per experimental group. Scale bars: 20 μm (CD69, CD8, CD4, p-STAT3, and Foxp3) and 100 μm (gp100). White arrows indicate the immune cells. Insets: original magnification, ×40. (B) The graphs show the quantification of gp100 and p-STAT3 expression levels (MFI) or the cell population (%) of CD69^+ in CD8^+ or p-STAT3^+ in CD4^+ or Foxp3^+ in CD4^+ (data represent 5 lungs per group, n = 5). SD is shown. One-way ANOVA; ****P < 0.001.
Mouse care and experimental procedures were performed under pathogen-free conditions in accordance with established institutional guidance and approved IACUC protocols from Research Animal Care Committee of the City of Hope. For s.c. tumor challenge, 5 × 10^6 HCT116 cells were injected into NSG mice from The Jackson Laboratory or animal resource core facility at the City of Hope. After tumors reached an average size of 80~100 mm^3, mice were locally or intravenously treated with 1 mg/kg of PO- or PS-peptides (Anaspec) every day or every other day. Control animals were treated with the equal volume of HBSS (Invitrogen, Thermo Fisher Scientific). Tumor growth was measured by a digital caliper every other day. To study the effects of the modified peptides at protein and gene levels, mice were euthanized 4–6 weeks after tumor injection. B16 melanoma lung metastasis was performed by injecting 0.5 × 10^6 B16 cells into bloodstream of C57BL/6 mice (The Jackson Laboratory). One day after tumor challenge, mice were treated intravenously (retro-orbitally) with 1 mg/kg of PO- or PS-acet.-STAT3, PS-unacet.-STAT3, or PS-STAT3-K685R peptides every other day until the endpoint as indicated. Control mice were treated with HBSS. Lungs were excised from the mice, and B16 nodules were visualized by gp100 staining. Lungs were then analyzed for immune responses by immunostaining followed by confocal imaging. For mouse PDAC model, 5 × 10^6 KPC mouse cells were mixed with Matrigel and subcutaneously injected into C57BL/6 mice (The Jackson Laboratory). After tumors reached an average size of 80~100 mm^3, mice were intravenously treated with 1 mg/kg of PO- or PS-Gp130, PS-oligo, PS-SC-MYC, PS-MYC. or combined PS-Gp130/PS-MYC (0.5 mg/kg, 0.5 mg/kg) (Anaspec) every other day for 18 days. Control animals were treated with the equal volume of HBSS (Invitrogen, Thermo Fisher Scientific). Tumor growth was measured by a digital caliper every other day. To study the effects of the modified peptides at protein and gene levels, mice were euthanized at the endpoint as indicated.

[2] = tested on: splenic CD8+ T cells; assay: CD8+ T cell activation and ELISA (IFN-γ, IL-2); type: cell-based, mouse; settings: anti-CD3/CD28 activated, 20 ng/mL IL-6, 1 μM peptide, 48 hours, ELISA, n = 4
Description: Data are representative of 3 independent experiments (n = 3). […] Data represent 4 independent experiments (n = 4). SD is shown. One-way ANOVA; ****P < 0.001.
CD8^+ T cells were isolated from C57BL/6 mice spleens as described above. A 96-well plate (Cellstar) was precoated with 2 μg/mL anti-CD3 antibody (BioLegend, clone 145-2c11, 100331) at 4°C overnight (BioLegend), and 1–2 × 10^5 cells were seeded into each well, followed by adding 2 μg/mL soluble CD28 (BioLegend, clone 37-51, 102012) and stimulation with 20 ng/mL IL-6. PS-unacet.-STAT3, PS-STAT3-K685R, and PO- or PS-acet.-STAT3 peptides at a concentration of 1 μM were added to the cells. Peptide treatment was repeated on the following day. Control cells were treated with HBSS. After 48 hours’ treatment with peptides at 37°C, supernatants were assessed for IFN-γ and IL-2 production by R&D, Bio-Techne, kits (DY402 and DY406), according to manufacturer’s instruction.

Substance: PDIPKEEAFGK685(Ac)YCRPESQEHPC-linker-T*C*C*A*T*G*A*G*C*T*T*C*C*T*G*A*T*G*C*T [PS-acet.-STAT3 peptide]
- metastatic lung nodules ([1]; B16 i.v. in C57BL/6 mice, 1 mg/kg i.v. every other day, gp100 staining, n = 5): striking reduction
- STAT3 activation (p-STAT3) in tumor cells and CD4+ T cells ([1]; B16 lung nodules, IF staining, confocal): significantly decreased
- infiltration of CD69+ activated CD8+ T cells in metastatic B16 lung nodules ([1]; IF staining, confocal): increased
- tumor-associated FoxP3+CD4+ T cells (regulatory T cells) ([1]; IF staining, confocal): concomitantly reduced
- interferon-γ (IFN-γ) and IL-2 production by CD8+ T cells [2]: induced
